Source: patent publication US10934255B2, “Nrf and HIF activators/HDAC inhibitors and therapeutic methods using the same” (THE BOARD OF TRUSTEES OF THE UNIVERSITY OF ILLINOIS, priority 2017, dated 2021)

Experiments:
[1] = test system: α-tubulin acetylation; conditions: published results; cited from earlier work
[2] = test system: prostate cancer (LNCaP) cells; conditions: via peroxiredoxin acetylation, published results; cited from earlier work
[3] = test system: primary cortical neurons; experiment: HCA-induced neurodegeneration assay (oxidative stress, glutathione depletion); format: cell-based; conditions: at 0.5 μM; protection declined at higher concentrations due to neurotoxicity
Method: FIG. 1 contains bar graphs of % cell survival vs. concentration for HCA evaluation of II-ING-66 using the glutathione depletion neurotoxicity model of oxidative stress. Immature primary cortical neurons were treated with the test compound alone or in the presence of HCA. Cell viability was assessed at 24 h using the MTT assay. Bar plot represents percentage control mean±SEM of viable cells (n=3). *p<0.05 and **p<0.01 compared to control (DMSO) (n=3/group). HCA oxidative stress assay.
Compound II-ING-66 was examined in a model of oxidative stress induced by homocysteic acid (HCA), where neurons were treated with the test compound alone or in the presence of HCA.
It has been shown that HDAC6 inhibition protects against neuronal degeneration and stimulates neurite outgrowth in dorsal root ganglion neurons, therefore indicating methods of treating CNS diseases. Accordingly, present compounds were examined in a model of oxidative stress induced by homocysteic acid (HCA). This model leads to depletion of glutathione, the major intracellular antioxidant. HDAC6 inhibition rescues neuronal death in this model, possibly by causing hyperacetylation of peroxiredoxins. […] (A. P. Kozikowski et al., J. Med. Chem. 2007, 50, 3054-61.) […]

SMILES: O=C(CCCCCCC(=O)Nc1ccc([C@H]2O[C@@H](CSc3nc(-c4ccccc4)c(-c4ccccc4)o3)C[C@@H](c3ccc(CO)cc3)O2)cc1)NO [Tubacin]
- Concentration inducing α-tubulin acetylation [1]: 5 µM
- Concentration protecting from hydrogen peroxide-induced death [2]: 8 µM

SMILES: CC(/C=C/C(=O)NO)=C\[C@@H](C)C(=O)c1ccc(N(C)C)cc1 [TSA, Trichostatin A]
- Neuroprotection in HCA-induced neurodegeneration [3]: moderately neuroprotective
